Several values for one entry are separate records, joined by “and”; a condition that tells them apart may be missing. Identical values can stand only once.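 Where inhibition never reached the appropriate level, the endpoint shown equals the highest concentration tested. Otherwise, values were interpolated linearly from a five-concentration, 48-hour dose response in 96-well plates. Abbreviation: GI50, concentration required for 50% inhibition of growth.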 Activity calls are given as the source filed them. No stated cut-off is given here; in the data, active = GI50 up to about 1.1 µM and inactive = higher.
Legend:
Assay in all cases: inhibition of tumour cell growth, NCI panel, 48 h
HCC 2998 = system: HCC 2998
LOX IMVI = system: LOX IMVI
SW-620 = system: SW-620
DLD-1 = system: DLD-1
SN12C = system: SN12C
SK-OV-3 = system: SK-OV-3
KM-20L2 = system: KM-20L2
DMS-273 = system: DMS-273
CCRF-CEM = system: CCRF-CEM
HCT-116 = system: HCT-116
BT-549 = system: BT-549
UACC-257 = system: UACC-257
LXFL 529 = system: LXFL 529
SK-MEL-5 = system: SK-MEL-5
PC-3 = system: PC-3
HOP-18 = system: HOP-18
DMS-114 = system: DMS-114
MDA-N = system: MDA-N
SNB-78 = system: SNB-78
Hs-578T = system: Hs-578T
M19-MEL = system: M19-MEL
MDA-MB-435 = system: MDA-MB-435
NCI-H226 = system: NCI-H226
XF498 = system: XF498
A549 = system: A549
NCI/ADR-RES = system: NCI/ADR-RES
A498 = system: A498
UO-31 = system: UO-31
OVCAR-3 = system: OVCAR-3
SF-295 = system: SF-295
HOP-62 = system: HOP-62
EKVX = system: EKVX
HT-29 = system: HT-29
OVCAR-4 = system: OVCAR-4
SK-MEL-28 = system: SK-MEL-28
IGROV-1 = system: IGROV-1
SF-539 = system: SF-539
SNB-75 = system: SNB-75
OVCAR-8 = system: OVCAR-8
HL-60 = system: HL-60
NCI-H23 = system: NCI-H23
K562 = system: K562
SR = system: SR
COLO 205 = system: COLO 205
U-251 = system: U-251
SF-268 = system: SF-268
TK-10 = system: TK-10
RPMI-8226 = system: RPMI-8226
ACHN = system: ACHN
OVCAR-5 = system: OVCAR-5
NCI-H522 = system: NCI-H522
SNB-19 = system: SNB-19
NCI-H460 = system: NCI-H460
UACC-62 = system: UACC-62
RXF 393 = system: RXF 393
Malme-3M = system: Malme-3M
MOLT-4 = system: MOLT-4
M14 = system: M14
786-0 = system: 786-0
CAKI-1 = system: CAKI-1
HCT-15 = system: HCT-15
KM12 = system: KM12
HOP-92 = system: HOP-92
SK-MEL-2 = system: SK-MEL-2

Measured: GI50

COC1=C(N)C(=O)c2nc(-c3nc(C(=O)O)c(C)c(-c4ccc(OC)c(OC)c4O)c3N)ccc2C1=O [STREPTONIGRIN]
active: HCC 2998 5.65 nM and < 10.9 nM | LOX IMVI 0.00581 µM | SW-620 6.03 nM and 10 nM | DLD-1 0.0131 µM | SN12C 0.00785 µM | SK-OV-3 0.00826 µM | KM-20L2 10 nM and 19 nM | DMS-273 < 0.01 µM | CCRF-CEM < 10 nM and 6.01 nM | HCT-116 0.00619 µM | BT-549 0.00526 µM | UACC-257 7.87 nM and < 10.7 nM | LXFL 529 0.01 µM | SK-MEL-5 < 10 nM and 5.81 nM | PC-3 0.0071 µM | HOP-18 < 0.01 µM | DMS-114 < 0.01 µM | MDA-N 0.00792 µM | SNB-78 19.4 nM and < 10 nM | Hs-578T < 0.01 µM | M19-MEL 0.01 µM | MDA-MB-435 < 10 nM and 8.59 nM | NCI-H226 < 10 nM and 5.73 nM | XF498 < 0.01 µM | A549 0.00505 µM | NCI/ADR-RES 0.00893 µM | A498 8.11 nM and 12.6 nM

CCC12C=CCN3CC[C@]4(C(=C(C(=O)OC)[C@@H]1Nc1ncnc5c1ncn5C1OC(COC(C)=O)C(OC(C)=O)C1OC(C)=O)Nc1ccccc14)C32 (some centres undefined)
inactive: UO-31 5.62 µM | HCC 2998 1.82 µM | OVCAR-3 1.98 µM | LOX IMVI 1.75 µM | SF-295 3.05 µM | SW-620 2.45 µM | DLD-1 2.69 µM | HOP-62 2.84 µM | EKVX 4.78 µM | HT-29 2.23 µM | OVCAR-4 2.42 µM | SK-MEL-28 3.52 µM | IGROV-1 2.85 µM | SF-539 2.18 µM | SNB-75 2.43 µM | OVCAR-8 2.18 µM | SN12C 2.01 µM | HL-60 2.65 µM | NCI-H23 1.97 µM | SK-OV-3 2.36 µM | KM-20L2 2.71 µM | K562 3.18 µM | DMS-273 2.75 µM | CCRF-CEM 2.45 µM | SR 2.34 µM | HCT-116 2.82 µM | COLO 205 1.88 µM | UACC-257 5.3 µM | LXFL 529 2.4 µM | U-251 2.19 µM | SK-MEL-5 2.55 µM | SF-268 2.05 µM | TK-10 2.87 µM | RPMI-8226 3.27 µM | ACHN 2.34 µM | HOP-18 7.64 µM | DMS-114 1.91 µM | OVCAR-5 3.47 µM | NCI-H522 1.7 µM | SNB-19 5.62 µM | SNB-78 3.15 µM | NCI-H460 2.51 µM | UACC-62 3.11 µM | M19-MEL 1.99 µM | RXF 393 2 µM | Malme-3M 4.9 µM | NCI-H226 2.36 µM | MOLT-4 3.3 µM | M14 2.62 µM | XF498 3 µM | A549 3.53 µM | 786-0 1.94 µM | CAKI-1 3.42 µM | A498 2.04 µM | KM12 2.42 µM | HOP-92 2.39 µM | SK-MEL-2 3.44 µM
3.04 µM: HCT-15

COc1ccc(/C=C2\CCC(CCN3CCOCC3)C2=O)cc1 (centres undefined)
> 100 µM: HCT-15
inactive: UO-31 > 100 µM | HCC 2998 > 100 µM | OVCAR-3 > 100 µM | LOX IMVI > 100 µM | SF-295 > 100 µM | SW-620 > 100 µM | DLD-1 > 100 µM | HOP-62 > 100 µM | EKVX > 100 µM | HT-29 > 100 µM | OVCAR-4 > 100 µM | SK-MEL-28 > 100 µM | IGROV-1 > 100 µM | SF-539 > 100 µM | SNB-75 > 100 µM | OVCAR-8 > 100 µM | SN12C > 100 µM | HL-60 > 100 µM | NCI-H23 > 100 µM | KM-20L2 > 100 µM | K562 > 100 µM | DMS-273 > 100 µM | CCRF-CEM > 100 µM | SR > 100 µM | HCT-116 > 100 µM | UACC-257 > 100 µM | LXFL 529 > 100 µM | SK-MEL-5 > 100 µM | SF-268 > 100 µM | TK-10 > 100 µM | RPMI-8226 > 100 µM | ACHN > 100 µM | HOP-18 > 100 µM | DMS-114 > 100 µM | OVCAR-5 > 100 µM | SNB-19 > 100 µM | SNB-78 > 100 µM | NCI-H460 > 100 µM | UACC-62 > 100 µM | M19-MEL > 100 µM | RXF 393 > 100 µM | Malme-3M > 100 µM | NCI-H226 > 100 µM | MOLT-4 > 100 µM | M14 > 100 µM | XF498 > 100 µM | A549 > 100 µM | 786-0 > 100 µM | CAKI-1 > 100 µM | A498 > 100 µM | KM12 > 100 µM | HOP-92 > 100 µM | SK-MEL-2 > 100 µM

From ChEMBL document CHEMBL1201862, “PubChem BioAssay data set” (2004)
